From PMC9181938, “Fluorinated Analogues of Lepidilines A and C: Synthesis and Screening of Their Anticancer and Antiviral Activity” (Molecules, 2022)

Assay: Cytotoxicity screening at 10 µM (MTT)
Assay type: cell-based, Cercopithecus aethiops
Conditions: Cercopithecus aethiops, Vero cells, read-out: Cell line (viability %) Vero

With Cc1c(C)n(Cc2ccccc2)c(=S)n1Cc1ccccc1 [Compound 10a] the viability at 48 h, 10 µM was 83.8%.
